From patent US20240284907A1, “NOVEL DERIVATIVES OF NON-CODED AMINO ACIDS AND THEIR USE AS HERBICIDES” (FortePhest LTD., priority 2021, published 2024)

- melting point: 87 °C
Compound: CC(=O)NCCc1nc(Cl)sc1Cl [ID 5650, N-[2-(2,5-dichloro-1,3-thiazol-4-yl)ethyl]acetamide]
